Assay results published in US20160326098A1, “Pharmaceutically Active Compound for Use as Anti-inflammatory Agent” (Pax Forschung GmbH, priority 2013, published 2016).

Columns and labels:
Format in all cases: in vivo
nitrite/nitrate (NOx) [1] = test: Nitrite/nitrate level in blood, rats with gastric injury without inflammation; settings: 1.11 mmol/kg, vs control group H, FIG. 25
Method: (§1) The levels of plasma nitrite/nitrate (NOx), stable end products of NO were measured by the Griess reaction. This assay depends on the reduction of nitrate to nitrite, which is then converted into a colored azo dye compound that is detected spectrophotometrically at 540 nm.
Further experiments regarding the effect of a compound of formula (I) and a pharmaceutical composition comprising a compound of formula (I), respectively, on gastric injury without inflammation were conducted on rats. 15 animals were randomly allocated into three groups. Group H (n=5) served as sham-operated controls. Samples of all animals were drawn on day 1 of the clinical tests. On day 2 the animals of group I (n=5) were force-fed acetylsalicylic acid (ASS) (1.11 mmol/kg body weight). Group K (n=5) was force-fed 1.11 mmol/kg body weight of the compound according to the invention. Group H only received the respective solvent (25% ethanol in water). One day after the gavage, additional samples were drawn. Fluorescence confocal endomicroscopy was performed to examine the microvasculature and morphologic changes of the mucosa of the distal colon, and full-thickness tissue samples and venous blood samples were taken to determine the biochemical changes in the colon and plasma. The effects were determined by way of measurement of body weight, blood gas analysation and biopsy. […]

myeloperoxidase (MPO) = test: Tissue myeloperoxidase activity, mice with TNBS-induced colitis; settings: gastric and colon tissue, 1.11 mmol/kg, one day after treatment, vs untreated colitis and ASS groups, FIGS. 13a/13b
Method: (§2) Colonic inflammation was induced by intracolonic administration of TNBS (2,4,6-trinitrobenzenesulfonic acid) (40 mg/kg in 0.25 ml of 25% aqueous ethanol) through an 8-cm-long soft plastic catheter under transient diethylether anesthesia. In the sham-operated groups, only the vehicle for TNBS was administered. The animals were deprived of food, but not water, for 12 h before the enemas.
Colon biopsies kept on ice were homogenized in phosphate buffer (pH 7.4) containing 50 mM Tris-HCl (Reanal, Budapest, Hungary), 0.1 mM EDTA, 0.5 mM dithiothreitol, 1 mM phenylmethylsulfonyl fluoride, 10 μg/ml soybean trypsin inhibitor, and 10 μg/ml leupeptin (Sigma Aldrich GmbH, Munich, Germany). […] The activity of myeloperoxidase (MPO) was measured on the pellet of the homogenate.
The activity of MPO as a marker of tissue leukocyte infiltration was measured on the pellet of the homogenate. […] The reaction led to the hydrogen peroxide-dependent oxidation of tetramethylbenzidine, which could be detected spectrophotometrically at 450 nm (UV-1601 spetrophotometer; Shimadzu, Kyoto, Japan). Myeloperoxidase activities were measured at 37° C.; the reaction was stopped after 5 minutes by the addition of 0.2 ml of H2SO4 (2 M), and the resulting data were referred to the protein content. […]

nitrite/nitrate (NOx) [2] = test: Tissue nitrite/nitrate level, mice with TNBS-induced colitis; settings: gastric and colon tissue, 1.11 mmol/kg, FIGS. 15a/15b
Method: as §2, §1
The above-described clinical studies were repeated with animals having colitis which was induced as described above. […] Two days after the enema the effects of the treatment were determined by measurement of body weight, blood gas analysis and biopsy. […] Surgery was performed to allow registration of the hemodynamic parameters at 1 h intervals for 6 h (cardiac output [CO] data were measured only at the end of the experiments). […] In addition, fluorescence confocal endomicroscopy was performed to examine the microvasculature and morphologic changes of the mucosa of the distal colon, and full-thickness tissue samples and venous blood samples were taken to determine the biochemical changes in the colon and plasma.

[3] = test system: collagen-induced arthritis (CIA); test: Collagen-induced arthritis (CIA), clinical evaluation; settings: mice, 1.11 mmol/kg force-fed from first immunization until end
Method: Further clinical studies were performed with animals having collagen-induced arthritis (CIA). In these studies, mice were used as test animals. At the age of eight weeks, the animals were immunized intradermally at the base of the tail with 50 μl of bovine collagen II emulsified in 50 μl of complete Freund's adjuvant. A second booster immunization was performed 3 weeks later, when 50 μl of incomplete Freund's adjuvant was administered with or without the same volume of collagen H. The animals were randomly allocated into experimental groups wherein group 1 served as control, having no arthritis, group 2 served as second control having arthritis, but receiving no further treatment, and group 3 having arthritis and being treated with compound according to the invention. The animals of group 3 were force-fed 1.11 mmol/kg body weight of the compound according to the invention from the first immunization until the end of the experiments. The severity of CIA was evaluated using a clinical scoring system; inflammatory hyperalgesia was detected with thermal stimulation. […]

Row | SMILES | nitrite/nitrate level in the blood (nitrite/nitrate (NOx) [1]) | myeloperoxidase enzyme activity (myeloperoxidase (MPO)) | nitrite/nitrate level (nitrite/nitrate (NOx) [2]) | severity of CIA (clinical scoring system of Nandakumar) ([3]; vs untreated arthritis group 2, FIG. 36) | incidence of CIA ([3]; same in untreated arthritis group 2, FIG. 36) [%]
1 | CC(=O)Oc1ccccc1C(=O)O [ASS, acetylsalicylic acid, reference compound] | increased nitrite/nitrate level |  |  |  | 
2 | CC(=O)Oc1ccccc1C(=O)NC(CO)(CO)CO [compound according to the invention] |  | decrease of activity | nitrite/nitrate levels comparable to those of healthy animals | less serious arthritis | 90
